What all share (assay type): functional
Test [1] has as its target T1, High affinity choline transporter 1 (Homo sapiens, UniProt Q9GZV3).
T1 sequence (Q9GZV3 whole entry): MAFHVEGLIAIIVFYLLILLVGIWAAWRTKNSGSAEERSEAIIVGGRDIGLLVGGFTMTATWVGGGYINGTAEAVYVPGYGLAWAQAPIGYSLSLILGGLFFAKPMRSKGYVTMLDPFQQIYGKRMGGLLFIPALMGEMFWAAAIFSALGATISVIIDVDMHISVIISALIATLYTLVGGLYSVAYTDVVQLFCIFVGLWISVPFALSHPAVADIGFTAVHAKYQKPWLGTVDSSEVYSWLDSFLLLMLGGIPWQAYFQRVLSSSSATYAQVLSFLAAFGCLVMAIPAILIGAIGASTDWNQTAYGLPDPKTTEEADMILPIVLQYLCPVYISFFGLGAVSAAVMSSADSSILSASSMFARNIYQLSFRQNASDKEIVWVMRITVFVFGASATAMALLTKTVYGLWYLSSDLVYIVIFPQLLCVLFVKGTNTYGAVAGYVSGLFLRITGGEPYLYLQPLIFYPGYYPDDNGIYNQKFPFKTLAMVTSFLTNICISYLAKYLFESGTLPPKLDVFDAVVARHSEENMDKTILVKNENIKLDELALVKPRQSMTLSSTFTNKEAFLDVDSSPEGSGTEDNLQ
The experiment in a line: CHT inhibitors, dose response, cell-based, 5-point CRC, membrane potential dye (AID 504840).

Test [2] addresses T1, High affinity choline transporter 1. The test is described as follows: CHT inhibitors, dose response, cell-based, 10-point CRC, membrane potential dye (AID 588401).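 Note: membrane potential dye fluorescence of choline-evoked depolarization via CHT.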
Test [3] addresses T2, Neuropeptides B/W receptor type 1 (Homo sapiens, UniProt P48145).
T2 sequence (P48145 whole entry): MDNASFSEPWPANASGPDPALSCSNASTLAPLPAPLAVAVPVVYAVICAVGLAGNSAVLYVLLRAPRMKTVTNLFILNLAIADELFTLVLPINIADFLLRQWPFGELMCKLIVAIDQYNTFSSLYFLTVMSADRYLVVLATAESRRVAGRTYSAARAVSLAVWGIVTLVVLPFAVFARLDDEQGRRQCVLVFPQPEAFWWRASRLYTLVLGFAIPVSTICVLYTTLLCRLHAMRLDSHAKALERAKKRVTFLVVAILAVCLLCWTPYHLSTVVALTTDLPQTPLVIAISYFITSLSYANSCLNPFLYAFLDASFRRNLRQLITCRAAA
The experiment in a line: GPR7 antagonist potency, late-stage follow-up, cell-based, fluorescence, dose response, set 5 (AID 588566).

The target of test [4] is Melanin-concentrating hormone receptor 1 (Homo sapiens, UniProt Q99705). The experiment in a line: Late-stage fluorescence-based counterscreen for antagonists of the G-protein coupled receptor 7 (GPR7): cell-based dose response assay to identify antagonists of the melanin-concentrating hormone receptor 1 (MCHR1) Set 5. A general note: The purpose of a counterscreen is to sort out artefacts and off-target activity.
Chain of Melanin-concentrating hormone receptor 1 (Q99705 whole entry): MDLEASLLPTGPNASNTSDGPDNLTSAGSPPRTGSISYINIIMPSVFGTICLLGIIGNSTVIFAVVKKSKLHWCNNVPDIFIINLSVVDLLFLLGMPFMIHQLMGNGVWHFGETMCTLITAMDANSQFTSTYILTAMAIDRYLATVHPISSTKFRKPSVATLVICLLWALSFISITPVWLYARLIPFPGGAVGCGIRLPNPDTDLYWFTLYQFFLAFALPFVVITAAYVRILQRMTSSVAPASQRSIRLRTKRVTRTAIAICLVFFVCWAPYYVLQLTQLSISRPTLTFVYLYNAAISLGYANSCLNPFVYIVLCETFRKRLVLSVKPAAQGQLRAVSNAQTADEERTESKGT

Activity calls are given as the source filed them.

`COc1ccc(C(=O)NCCCSC)cc1OC1CCN(C(C)C)CC1`: the 50% inhibitory concentration (IC50) was 8.13 µM (active) in test [1] and 4.74 µM (active) in test [2].
For `CCOC(=O)C(C(N)=O)c1c(Cl)cnn(Cc2cccc3ccccc23)c1=O` (centres undefined), the IC50 in test [3] is 11.8 µM (inactive); in test [4], > 20 µM (inactive).

Broadly, the IC50 is the concentration at which inhibition is half-maximal.
